Experimental data taken from PubChem BioAssay (NCI).
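Protocol summary: plate cells (96-well), add compound at 5 concentrations, incubate 48 h, interpolate endpoints linearly. TGI: concentration producing complete growth inhibition.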

Assays:
Test in all cases: growth of human tumour cells (NCI), 48 h
[1] = system: NCI-H23 lung
[2] = system: PC-3 prostate
[3] = system: K-562 leukemia
[4] = system: CCRF-CEM leukemia
[5] = system: IGROV1 ovarian
[6] = system: A498 renal
[7] = system: UACC-257 melanoma
[8] = system: SK-OV-3 ovarian
[9] = system: SN12C renal
[10] = system: COLO 205 colon
[11] = system: SR leukemia
[12] = system: T-47D breast
[13] = system: HS 578T breast
[14] = system: SK-MEL-2 melanoma
[15] = system: MCF7 breast
[16] = system: SF-268 CNS
[17] = system: EKVX NSCLC
[18] = system: ACHN renal
[19] = system: SF-295 CNS
[20] = system: OVCAR-4 ovarian
[21] = system: MDA-MB-231 breast
[22] = system: HCT-116 colon
[23] = system: SNB-75 CNS
[24] = system: SK-MEL-28 melanoma
[25] = system: HT29 colon
[26] = system: OVCAR-8 ovarian
[27] = system: OVCAR-5 ovarian
[28] = system: MOLT-4 leukemia
[29] = system: SW-620 colon
[30] = system: U251 CNS
[31] = system: CAKI-1 renal
[32] = system: HCT-15 colon
[33] = system: RXF 393 renal
[34] = system: SK-MEL-5 melanoma
[35] = system: UO-31 renal
[36] = system: SF-539 CNS
[37] = system: BT-549 breast
[38] = system: HOP-62 NSCLC
[39] = system: NCI-H522 lung
[40] = system: MALME-3M melanoma
[41] = system: HCC-2998 colon
[42] = system: HL-60(TB) leukemia
[43] = system: A549 NSCLC
[44] = system: NCI-H460 lung
[45] = system: M14 melanoma
[46] = system: SNB-19 CNS
[47] = system: RPMI-8226 leukemia
[48] = system: NCI/ADR-RES ovarian
[49] = system: MDA-N
[50] = system: NCI-H226 lung
[51] = system: KM12 colon
[52] = system: MDA-MB-435
[53] = system: DU-145 prostate
[54] = system: HOP-92 NSCLC
[55] = system: 786-0 renal
[56] = system: LOX IMVI melanoma
[57] = system: UACC-62 melanoma
[58] = system: TK-10 renal
[59] = system: OVCAR-3 ovarian

`Clc1ccc(/C(=C\c2ccccc2)Cn2ccnc2)cc1` was tested, and the TGI [1] was > 100 µM, the TGI [2] was 31.9 µM and the TGI [3] was > 100 µM. For the same molecule, the TGI [4] was > 100 µM, the TGI [5] was > 100 µM and the TGI [6] was 42.1 µM. For the same molecule, the TGI [7] was 47.8 µM, the TGI [8] was 36.3 µM and the TGI [9] was 89.2 µM. For the same molecule, the TGI [10] was 28.6 µM, the TGI [11] was > 100 µM and the TGI [12] was 69.9 µM. For the same molecule, the TGI [13] was > 100 µM, the TGI [14] was 30.3 µM and the TGI [15] was 44.5 µM. It also gave a TGI [16] of 53.4 µM, a TGI [17] of 68.4 µM and a TGI [18] of 67.6 µM. The TGI [19] was 49.4 µM, the TGI [20] was > 100 µM and the TGI [21] was 26.8 µM. For the same molecule, the TGI [22] was 29.1 µM, the TGI [23] was 59.4 µM and the TGI [24] was 38.1 µM. For the same molecule, the TGI [25] was 30.1 µM, the TGI [26] was 33.4 µM and the TGI [27] was 63 µM. The TGI [28] was > 100 µM, the TGI [29] was > 100 µM and the TGI [30] was 31.2 µM. For the same molecule, the TGI [31] was 30.1 µM, the TGI [32] was 39.1 µM and the TGI [33] was 42.2 µM. For the same molecule, the TGI [34] was 25.6 µM, the TGI [35] was 32.4 µM and the TGI [36] was 31.5 µM. The TGI [37] was 38 µM, the TGI [38] was 38.3 µM and the TGI [39] was 28 µM. For the same molecule, the TGI [40] was 27 µM, the TGI [41] was 48.8 µM and the TGI [42] was 45.5 µM. The TGI [43] was 49.4 µM, the TGI [44] was 44.8 µM and the TGI [45] was 39.4 µM. It also gave a TGI [46] of 49.4 µM, a TGI [47] of 73.7 µM and a TGI [48] of 38 µM. The TGI [49] was 39 µM, the TGI [50] was 33.1 µM and the TGI [51] was 20.7 µM. The TGI [52] was 34.6 µM, the TGI [53] was 58.3 µM and the TGI [54] was 39.4 µM. It also gave a TGI [55] of 38.5 µM, a TGI [56] of 22.9 µM and a TGI [57] of 35.8 µM. For the same molecule, the TGI [58] was > 100 µM.
In the case of `CC(C)=CCC[C@@H](C)C1=C(O)C(N)=C(C)C(=O)C1=O`, the TGI [1] is reported as > 100 µM, the TGI [2] is reported as > 100 µM and the TGI [3] is reported as > 100 µM. For the same molecule, the TGI [4] was > 100 µM, the TGI [5] was > 40.2 µM and the TGI [6] was > 100 µM. The TGI [7] was > 100 µM, the TGI [8] was > 100 µM and the TGI [9] was > 100 µM. For the same molecule, the TGI [10] was > 100 µM, the TGI [11] was > 78.4 µM and the TGI [12] was > 88.4 µM. For the same molecule, the TGI [13] was > 100 µM, the TGI [14] was > 100 µM and the TGI [15] was > 100 µM. The TGI [16] was > 100 µM, the TGI [17] was > 100 µM and the TGI [18] was 65.4 µM. For the same molecule, the TGI [19] was > 72.3 µM, the TGI [20] was > 100 µM and the TGI [21] was > 100 µM. For the same molecule, the TGI [22] was > 100 µM, the TGI [23] was > 100 µM and the TGI [24] was > 100 µM. For the same molecule, the TGI [25] was > 100 µM, the TGI [26] was > 64.8 µM and the TGI [27] was > 100 µM. For the same molecule, the TGI [28] was > 56.6 µM, the TGI [29] was > 100 µM and the TGI [30] was > 100 µM. The TGI [31] was > 83.6 µM, the TGI [32] was > 100 µM and the TGI [33] was > 100 µM. For the same molecule, the TGI [34] was > 86 µM, the TGI [35] was > 71.1 µM and the TGI [36] was 89.5 µM. The TGI [37] was > 100 µM, the TGI [38] was > 100 µM and the TGI [59] was > 100 µM. For the same molecule, the TGI [40] was > 100 µM, the TGI [41] was > 100 µM and the TGI [42] was 10.9 µM. The TGI [43] was > 100 µM, the TGI [44] was > 100 µM and the TGI [45] was > 73.2 µM. The TGI [46] was > 100 µM, the TGI [47] was 98.6 µM and the TGI [48] was 24.7 µM. The TGI [49] was > 100 µM, the TGI [50] was > 100 µM and the TGI [51] was > 100 µM. The TGI [52] was > 100 µM, the TGI [53] was > 100 µM and the TGI [54] was > 100 µM. For the same molecule, the TGI [55] was > 100 µM, the TGI [56] was > 100 µM and the TGI [57] was > 93.4 µM. For the same molecule, the TGI [58] was > 100 µM.
In the case of `CCNc1ncnc2sc(SCc3ccccc3)nc12`, the TGI [1] is reported as > 100 µM, the TGI [2] is reported as > 100 µM and the TGI [3] is reported as > 100 µM. The TGI [4] was > 100 µM, the TGI [5] was > 100 µM and the TGI [6] was > 100 µM. The TGI [7] was > 100 µM, the TGI [8] was > 100 µM and the TGI [9] was > 100 µM. For the same molecule, the TGI [10] was > 100 µM, the TGI [11] was > 100 µM and the TGI [12] was > 100 µM. The TGI [13] was > 100 µM, the TGI [14] was > 100 µM and the TGI [15] was > 100 µM. For the same molecule, the TGI [16] was > 100 µM, the TGI [17] was > 100 µM and the TGI [18] was > 100 µM. The TGI [19] was > 100 µM, the TGI [20] was > 100 µM and the TGI [21] was > 100 µM. The TGI [22] was > 100 µM, the TGI [23] was > 100 µM and the TGI [24] was > 100 µM. The TGI [25] was > 100 µM, the TGI [26] was > 100 µM and the TGI [27] was > 100 µM. For the same molecule, the TGI [28] was > 100 µM, the TGI [29] was > 100 µM and the TGI [30] was > 100 µM. For the same molecule, the TGI [31] was > 100 µM, the TGI [32] was > 100 µM and the TGI [33] was > 100 µM. The TGI [34] was > 100 µM, the TGI [35] was > 100 µM and the TGI [36] was > 100 µM. For the same molecule, the TGI [37] was > 100 µM, the TGI [38] was > 100 µM and the TGI [39] was > 100 µM. For the same molecule, the TGI [59] was > 100 µM, the TGI [40] was > 100 µM and the TGI [41] was > 100 µM. The TGI [42] was 56.4 µM, the TGI [43] was > 100 µM and the TGI [44] was > 100 µM. For the same molecule, the TGI [45] was > 100 µM, the TGI [46] was > 100 µM and the TGI [47] was > 100 µM. The TGI [48] was > 100 µM, the TGI [49] was > 100 µM and the TGI [50] was > 100 µM. The TGI [51] was > 100 µM, the TGI [52] was > 100 µM and the TGI [53] was > 100 µM. The TGI [54] was 81 µM, the TGI [55] was > 100 µM and the TGI [56] was > 100 µM. For the same molecule, the TGI [58] was > 100 µM.
`COc1cc2[nH]c(-c3ccccc3)cc(=O)c2c(OC)c1OC` was tested, and the TGI [1] was > 100 µM, the TGI [2] was > 100 µM and the TGI [3] was > 100 µM. The TGI [4] was > 100 µM, the TGI [5] was > 100 µM and the TGI [6] was > 100 µM. The TGI [7] was > 100 µM, the TGI [8] was > 100 µM and the TGI [9] was > 100 µM. For the same molecule, the TGI [10] was > 100 µM, the TGI [11] was > 100 µM and the TGI [12] was > 100 µM. For the same molecule, the TGI [13] was > 100 µM, the TGI [14] was > 100 µM and the TGI [15] was > 100 µM. The TGI [16] was > 100 µM, the TGI [17] was > 100 µM and the TGI [18] was > 100 µM. For the same molecule, the TGI [19] was > 100 µM, the TGI [20] was > 100 µM and the TGI [21] was > 100 µM. For the same molecule, the TGI [22] was > 100 µM, the TGI [23] was > 100 µM and the TGI [24] was > 100 µM. The TGI [25] was > 100 µM, the TGI [26] was > 100 µM and the TGI [27] was > 100 µM. The TGI [28] was > 100 µM, the TGI [29] was > 100 µM and the TGI [30] was > 100 µM. For the same molecule, the TGI [32] was > 100 µM, the TGI [33] was > 100 µM and the TGI [34] was > 100 µM. The TGI [35] was > 100 µM, the TGI [37] was > 100 µM and the TGI [38] was > 100 µM. The TGI [39] was > 100 µM, the TGI [59] was > 100 µM and the TGI [40] was > 100 µM. The TGI [41] was > 100 µM, the TGI [42] was > 100 µM and the TGI [43] was > 100 µM. For the same molecule, the TGI [44] was > 100 µM, the TGI [45] was > 100 µM and the TGI [46] was > 100 µM. For the same molecule, the TGI [47] was > 100 µM, the TGI [48] was > 100 µM and the TGI [49] was > 100 µM. For the same molecule, the TGI [50] was > 100 µM, the TGI [51] was > 100 µM and the TGI [52] was > 100 µM. The TGI [53] was > 100 µM, the TGI [55] was > 100 µM and the TGI [56] was > 100 µM. The TGI [57] was > 100 µM and the TGI [58] was > 100 µM.
